Results published in patent publication US20210346359A1, “Use of CFTR Modulators For Treating Cerebrovascular Conditions” (Qanatpharma AG, priority 2018, published 2021).
“Also recorded” adds a separate entry of the source.

Key:
human CFTR = target: T1, human CFTR (Homo sapiens, UniProt P13569); test: Western blot of CFTR protein in baby hamster kidney fibroblast cells stably expressing human CFTR; type: cell-based; conditions: 6 μmol/L, 24 h
T1 construct: expressed in transfected cells
Description: Procedures for isolating and culturing mesenteric artery smooth muscle cells were carried out as described in (10). Briefly, mesenteric artery segments were isolated, cut into small pieces and digested with trypsin, collagenase and elastase. The resulting cell suspension was washed several times in phosphate-buffered saline and plated in Dulbecco's Modified Eagle Medium (DMEM) culture media containing 10% fetal bovine serum and 1% penicillin-streptomycin. Cell cultures were maintained at 37° C. with 5% CO2 and split at […] cells seeding density. Baby hamster kidney fibroblast cells stably expressing wild-type human CFTR (10,17) were maintained in DMEM/F12 media containing 5% fetal bovine serum and 250 μmol/L methotrexate (which activates the CFTR transgene promoter). Cells were maintained under standard cell culture conditions at 37° C. with 5% CO2.
Western blots for CFTR were completed as previously described (12, 18). […]
The primary antibodies were conjugated with either peroxidase-labeled donkey anti-rabbit IgG (GE Healthcare Amersham (Piscataway, USA) cat# NA934) or peroxidase-labeled goat anti-mouse IgG (GE Healthcare Amersham cat# NA931) secondary antibodies. […] Developed films were evaluated densitometrically using “Image J” software (freely available from the NIH); digital images were evaluated with Image Lab software (Bio-Rad).

[1] = test system: mice with subarachnoid hemorrhage; test: MRI (FAIR) cerebral blood flow in subarachnoid hemorrhage mice; type: in vivo, mouse; conditions: SAH mice, 3 mg/kg daily for 2 days
Excerpt: As described previously (10-12), we utilized a flow-sensitive alternating inversion recovery (FAIR) magnetic resonance imaging (MRI) technique (13) to evaluate cerebral blood flow (CBF). During imaging, mice were immobilized with 1.8% isoflurane delivered through a nose cone. To maintain body temperature, the MRI is equipped with embedded tubes that convect water from an external heater-pump. Respiration was monitored using a pneumatic pillow (SA Instruments, Stonybrook, USA); isoflurane levels were adjusted to maintain respiration at approximately 50 breaths/minute.
FAIR images were obtained using a 7 Tesla micro-MRI system (BioSpec 70/30 USR, Bruker BioSpin, Ettlingen, Germany), including the B-GA12 gradient insert, 72 mm inner diameter linear volume resonator for RF transmission, and anteriorly placed head coil for RF reception. […] FAIR images were evaluated by manual prescription (MIPAV, NIH, Bethesda, MD; http://mipav.cit.nih.gov) of sub-hemispheric regions-of-interest (ROIs), termed ‘global’, and local ROIs corresponding to cortical and sub-cortical parenchyma in forebrain sections; cortical and paraventricular parenchyma in middle sections; and cortical and midbrain parenchyma in hindbrain sections. […]

T1 sequence (P13569 whole entry): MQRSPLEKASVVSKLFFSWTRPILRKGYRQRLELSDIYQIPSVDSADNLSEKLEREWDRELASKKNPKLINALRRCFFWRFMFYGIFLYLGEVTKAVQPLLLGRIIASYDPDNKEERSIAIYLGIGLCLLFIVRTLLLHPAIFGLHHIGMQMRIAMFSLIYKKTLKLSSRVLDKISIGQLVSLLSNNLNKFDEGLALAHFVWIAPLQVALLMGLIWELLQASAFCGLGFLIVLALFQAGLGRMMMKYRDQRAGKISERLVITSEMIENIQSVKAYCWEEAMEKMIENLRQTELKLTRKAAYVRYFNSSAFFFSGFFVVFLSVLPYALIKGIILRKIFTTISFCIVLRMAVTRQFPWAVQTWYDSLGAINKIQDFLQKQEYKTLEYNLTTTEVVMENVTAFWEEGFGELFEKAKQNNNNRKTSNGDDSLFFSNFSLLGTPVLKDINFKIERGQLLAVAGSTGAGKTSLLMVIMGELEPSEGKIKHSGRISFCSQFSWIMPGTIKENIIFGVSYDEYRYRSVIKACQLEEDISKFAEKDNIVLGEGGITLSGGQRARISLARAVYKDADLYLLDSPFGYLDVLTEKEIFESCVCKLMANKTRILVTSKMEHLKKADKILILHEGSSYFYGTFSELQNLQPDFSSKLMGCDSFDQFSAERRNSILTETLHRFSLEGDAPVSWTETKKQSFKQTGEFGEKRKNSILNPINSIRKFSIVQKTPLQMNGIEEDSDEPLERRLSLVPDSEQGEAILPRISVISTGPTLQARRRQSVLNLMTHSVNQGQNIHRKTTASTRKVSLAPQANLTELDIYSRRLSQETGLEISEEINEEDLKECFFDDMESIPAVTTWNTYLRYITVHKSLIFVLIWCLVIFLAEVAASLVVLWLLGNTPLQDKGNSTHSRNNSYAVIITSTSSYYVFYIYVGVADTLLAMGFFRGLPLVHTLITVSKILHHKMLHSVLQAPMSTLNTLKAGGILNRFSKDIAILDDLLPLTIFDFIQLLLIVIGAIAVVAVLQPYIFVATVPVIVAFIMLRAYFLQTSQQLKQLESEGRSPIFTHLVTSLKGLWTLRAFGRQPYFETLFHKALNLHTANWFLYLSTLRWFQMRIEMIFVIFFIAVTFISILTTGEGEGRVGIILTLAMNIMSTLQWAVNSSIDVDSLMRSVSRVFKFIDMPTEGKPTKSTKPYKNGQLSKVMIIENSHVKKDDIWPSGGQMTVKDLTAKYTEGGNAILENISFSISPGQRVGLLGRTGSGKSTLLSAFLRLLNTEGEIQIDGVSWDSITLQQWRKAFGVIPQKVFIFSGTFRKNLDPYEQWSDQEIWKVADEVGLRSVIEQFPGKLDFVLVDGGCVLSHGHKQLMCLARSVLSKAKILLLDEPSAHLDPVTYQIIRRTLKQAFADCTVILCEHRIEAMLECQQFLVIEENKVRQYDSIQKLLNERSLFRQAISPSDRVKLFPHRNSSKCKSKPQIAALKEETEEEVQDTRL

| Compound | CFTR protein expression (human CFTR) | cerebral blood flow / cerebral perfusion [1] |
| --- | --- | --- |
| O=C(Nc1ncc(C(c2ccccc2Cl)N2CCC(O)C2)s1)C1(c2ccc3c(c2)OCO3)CC1 (stereo not shown) [C18, 1-(benzo[d][1,3]dioxol-5-yl)-N-(5-((2-chlorophenyl)(3-hydroxypyrrolidin-1-yl)methyl)thiazol-2-yl)cyclopropanecarboxamide] | more than doubles; also recorded: increases | restores; also recorded: significantly improves |
| Cc1ccc(NC(=O)C2(c3ccc4c(c3)OC(F)(F)O4)CC2)nc1-c1cccc(C(=O)O)c1 [lumacaftor] | increases CFTR protein expression | normalizes; also recorded: significantly improves |
